Read-outs that look alike come from different tables or passages of the source.

In US20250195513A1, “DEGRADATION OF IRAK4 BY CONJUGATION OF IRAK4 INHIBITORS WITH E3 LIGASE LIGAND AND METHODS OF USE” (BeiGene, Ltd., priority 2022, published 2025) one finds DC50 and Dmax data, which are given here for six compounds.

The assay concerns the target T1, IRAK4 (Homo sapiens, UniProt Q9NWZ3).
T1 construct: endogenous in cells; host or cells: Karpas299
T1 sequence (Q9NWZ3 1-460): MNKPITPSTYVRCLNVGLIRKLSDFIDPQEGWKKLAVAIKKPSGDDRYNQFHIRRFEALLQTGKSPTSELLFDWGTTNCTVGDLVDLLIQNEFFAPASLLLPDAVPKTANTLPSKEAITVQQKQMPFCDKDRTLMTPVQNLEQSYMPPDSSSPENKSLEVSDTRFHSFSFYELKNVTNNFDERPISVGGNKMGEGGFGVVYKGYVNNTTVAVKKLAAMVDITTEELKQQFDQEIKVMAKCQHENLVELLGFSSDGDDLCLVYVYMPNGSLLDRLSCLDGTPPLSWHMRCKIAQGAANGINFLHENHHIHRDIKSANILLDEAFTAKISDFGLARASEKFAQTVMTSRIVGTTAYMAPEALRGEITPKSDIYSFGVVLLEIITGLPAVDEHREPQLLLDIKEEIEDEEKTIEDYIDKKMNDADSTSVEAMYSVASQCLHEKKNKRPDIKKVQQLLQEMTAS
Description: IRAK4 Degradation Assay (Karpas299, HTRF/TR-FRET). The assay is classed as cell-based. How it is done: IRAK4 degradation was measured using a TR-FRET-based method (Degorce, François, et al. Current chemical genomics. 2009, 3: 22). Karpas299 maintained in RPMI 1640 medium (Thermo Scientific) supplemented with 20% fetal bovine serum (FBS, Thermo Scientific), 100 units/mL penicillin and 0.1 mg/mL streptomycin (Thermo Scientific) were seeded into 96-well plates at the density of 0.2 million cells per well and then treated with a series dilution of compounds. After 24 hours or 5 hours treatment, cells were pelleted via centrifugation and 40 μL lysis buffer (Cisbio) was added to each well after removal of the supernatant. Plates were then incubated at room temperature with shaking for 30 minutes. A total of 16 μL of cell lysates from each well of a 96-well plate was transferred to a 384-well white assay plate. IRAK4 level was quantitated using the HTRF kit as described by the manufacturer manual (Cisbio). FRET signals were measured using a PHERAstar FSX reader (BMG Labtech).
After treatment, add HTRF lysis buffer to each well; seal the plate and incubate 1 hour at room temperature on a plate shaker; Once the cells are lysed, 16 μL of cell lysate are transferred to a PE 384-well HTRF detection plate; 4 μL of pre-mixed HTRF antibodies are added to each well; Cover the plate with a plate sealer, spin 1000 rpm for 1 min, Incubate overnight at room temperature; Read on BMG PheraStar with HTRF protocol (337 nm-665 nm-620 nm).
The inhibition (degradation) percentage of the compound was calculated by the following equation: […]
The IC50 (DC50) value of a compound can be obtained by fitting the following equation
Wherein, X and Y are known values, and IC50, Hillslope, Top and Bottom are the parameters obtained by fitting with software. Y is the inhibition percentage (calculated from the equation), X is the concentration of the compound; IC50 is the concentration of the compound when the […] is reached. The smaller the IC50 value is, the stronger the inhibitory ability of the compound is. Vice versa, the higher the IC50 value is, the weaker the ability the inhibitory ability of the compound is; Hillslope represents the slope of the fitted curve, generally around 1 *; Bottom represents the minimum value of the curve obtained by data fitting, which is generally 0%±20%; Top represents the maximum value of the curve obtained by data fitting, which is generally 100%±20%. The experimental data were fitted by calculating and analyzing with Dotmatics data analysis software.
In general terms: In TR-FRET formats the signal depends on donor and acceptor labels being close together.

Where [1] appears, read: Karpas-299 cells, 24 h treatment, maximum percentage of degradation, read-out: IRAK4 in Karpas-299 (24 h) Dmax (%).
The mark [2] stands for this setting: Karpas-299 cells, 24 h treatment, read-out: IRAK4 in Karpas-299 (24 h) DC50.

One may read the DC50 as the midpoint of the concentration-degradation curve. Usually Dmax stands for the largest share of the target that was removed. As for `COc1cc2nn([C@H]3CC[C@H](CN4CCN(C(=O)C5CCN(c6ccc(N7CCC(=O)NC7=O)cc6)CC5)CC4)CC3)cc2cc1NC(=O)c1cccc(C(F)(F)F)n1` [Example 7, N-(2-((1r,4r)-4-((4-(1-(4-(2,4-dioxotetrahydropyrimidin-1(2H)-yl)phenyl)piperidine-4-carbonyl)piperazin-1-yl)methyl)cyclohexyl)-6-methoxy-2H-indazol-5-yl)-6-(trifluoromethyl)picolinamide], the DC50 (Degradation (Karpas-299), comparison table, Linker Type A, read-out: Compound (Linker Type A) DC50) worked out at 137 nM and the DC50 under setting [2] worked out at 137 nM. The Dmax reads like this: (Degradation (Karpas-299), comparison table, Linker Type A, read-out: Compound (Linker Type A) Dmax (%)) 66%; under setting [1], 66%.

For the compound `NC(=O)c1nn(-c2ccc(N3CCN(C(=O)[C@@H]4CCN(c5cc(F)c([C@H]6CCC(=O)NC6=O)c(F)c5)C4)CC3)nc2)cc1NC(=O)c1coc(-c2ccnc(NCC(F)(F)F)c2)n1` [Example 166, N-(3-carbamoyl-1-(6-(4-((R)-1-(4-((R)-2,6-dioxopiperidin-3-yl)-3,5-difluorophenyl)pyrrolidine-3-carbonyl)piperazin-1-yl)pyridin-3-yl)-1H-pyrazol-4-yl)-2-(2-((2,2,2-trifluoroethyl)amino)pyridin-4-yl)oxazole-4-carboxamide], the Dmax under setting [1] amounted to 96%. Moreover, under setting [2], the DC50 is 2.6 nM.

On to `N#Cc1cnc2c(C(=O)Nc3ccc4nn([C@H]5CC[C@H](N6CCN(C7CN(c8cc(F)c([C@H]9CCC(=O)NC9=O)c(F)c8)C7)CC6)CC5)cc4c3)cnn2c1` [Example 424, 6-cyano-N-(2-((1R,4r)-4-(4-(1-(4-((R)-2,6-dioxopiperidin-3-yl)-3,5-difluorophenyl)azetidin-3-yl)piperazin-1-yl)cyclohexyl)-2H-indazol-5-yl)pyrazolo[1,5-a]pyrimidine-3-carboxamide], for which, under setting [1], the Dmax was determined as 42%. Besides, the DC50 under setting [2] was over 1000 nM.

`CC(C)(O)c1cc2nn([C@H]3CC[C@H](N4CCN(C(=O)[C@@H]5CCN(c6cc(F)c([C@H]7CCC(=O)NC7=O)c(F)c6)C5)CC4)CC3)cc2cc1NC(=O)c1ccc2c(n1)C(F)(F)CCC2` [Example 172, N-(2-((1R,4r)-4-(4-((R)-1-(4-((R)-2,6-dioxopiperidin-3-yl)-3,5-difluorophenyl)pyrrolidine-3-carbonyl)piperazin-1-yl)cyclohexyl)-6-(2-hydroxypropan-2-yl)-2H-indazol-5-yl)-8,8-difluoro-5,6,7,8-tetrahydroquinoline-2-carboxamide]: the Dmax under setting [1] is 94%. In addition, the DC50 under setting [2] is 1.6 nM.

As to `CC(C)(O)c1cc2nn([C@H]3CC[C@H](N4CCN(CCc5cc(F)c([C@H]6CCC(=O)NC6=O)c(F)c5)CC4)CC3)cc2cc1NC(=O)c1ccn2cc(C#N)cnc12` [Example 413, 3-cyano-N-(2-((1R,4r)-4-(4-(4-((R)-2,6-dioxopiperidin-3-yl)-3,5-difluorophenethyl)piperazin-1-yl)cyclohexyl)-6-(2-hydroxypropan-2-yl)-2H-indazol-5-yl)pyrrolo[1,2-a]pyrimidine-8-carboxamide], the Dmax under setting [1] worked out at 25%. Also, the DC50 under setting [2] is over 1000 nM.

As for `O=C1CCN(c2c(F)cc(N3CC(C(=O)N4CCN([C@H]5CC[C@H](n6cc(NC(=O)c7coc(-c8ccnc(NCC(F)(F)F)c8)n7)c(C(F)F)n6)CC5)CC4)C3)cc2F)C(=O)N1` [Example 76, N-(3-(difluoromethyl)-1-((1r,4r)-4-(4-(1-(4-(2,4-dioxotetrahydropyrimidin-1(2H)-yl)-3,5-difluorophenyl)azetidine-3-carbonyl)piperazin-1-yl)cyclohexyl)-1H-pyrazol-4-yl)-2-(2-((2,2,2-trifluoroethyl)amino)pyridin-4-yl)oxazole-4-carboxamide], under setting [1], the Dmax was found to be 97%. Also, the DC50 under setting [2] was 3.2 nM.
